Results: patent US20040014215A1, “Synchronised arabidopsis cell suspensions and uses thereof” (priority 2000, published 2004)

Tests used:
tobacco BY-2 cell line = conditions: BY-2, aphidicolin block; cited from earlier work
[1] = system: Arabidopsis cell suspension MM2d; assay: Aphidicolin block/release of MM2d: mitotic index and labelling index; assay type: cell-based, Arabidopsis thaliana
Experimental: This experiment was carried out as described for Example 1, except that cell line MM2d was used, and the culture conditions throughout the experiment were as described for MM2d in Example 1.
Synchronisation was performed as described in Example 2A, with the exception that before adding aphidicolin, 20 ml of the weekly subcultured cell suspension was transferred into 100 ml fresh MSS-medium in each of 2 separate flasks and cultivated under conditions as described in Example 1 for MM2d. […] Samples were taken at the same time frame for flow cytometry to follow cell cycle transition.
Samples were analysed by flow cytometry to determine the percentage of cells being in G1-, S- and G2M phase. The mitotic index (MI) and labelling index (LI) were independently determined (as described in Example 2A). Results are shown below in table II and in FIG. 1.
Table II. Aphidicolin block/release of Arabidopsis cell suspension MM2d. Data are shown from analysis of samples obtained in the experiment described in Example 2B.

CDK-b1 = assay: Northern expression analysis after aphidicolin synchronisation of MM1 (maximum signal = 100%); assay type: cell-based, Arabidopsis thaliana
Experimental: (§1) was analysed following the expression level of known cell cycle regulated genes. Synchronisation was performed as described in Example 2A, with the exception that two 7-day old cultures of the weekly sub-cultured cell suspension (210 ml each) were combined. 40 ml of combined culture was transferred into 200 ml of fresh MSS-medium in each of 10 separate flasks. After incubation for 24 hrs under conditions as described in Example 1, in the presence of 4.16 μg/ml aphidicolin, cells from 5 pooled flasks were washed through a nylon net (mesh size 47 μm) and washed with 2 litre MSS medium and shaken vigorously to remove the aphidicolin. Cells were transferred into a 50 ml plastic tube, washed again with MSS medium and centrifuged at 2500 rpm for 1 min (1075 rcf). Cells were resuspended and combined with the cells from the other 5 flasks similarly washed in a total volume of 300 ml fresh MSS-medium. 30 ml of this cell suspension was then added to 200 ml fresh MSS-medium in each of 10 separate flasks.
(§2) 1) 25 ml for Northern blot (transferred into 50 ml plastic tube, centrifuged at 2500 rpm for 1 min, the supernatant discarded, and the cell pellet shock-frozen in liquid nitrogen before storing in −80° C. freezer)
(§3) Samples were collected at the time point indicated (time of removal of aphidicolin equals time point 0 hrs) and were analysed for expression of the following genes by Northern blot:
CDK-b1 (also called Cdc2b/CDK2b: Accession no. ATCDC2BP)
(§4) For each probe the maximum hybridisation signal obtained was defined as 100%.

CDK-a = assay: as above; assay type: cell-based, Arabidopsis thaliana
Experimental: as §1, §2, §3
CDK-a (also called Cdc2a/CDK2a: Accession no. ATCDC2AP)
as §4

cell cycle = conditions: phase of the cell cycle at which cells are arrested; cited from earlier work
[2] = system: Arabidopsis cell suspension culture; conditions: phosphate starvation 32 hours then aphidicolin, cited from earlier work
[3] = 0 hrs after aphidicolin removal
[4] = 2 hrs after aphidicolin removal
[5] = 4 hrs after aphidicolin removal
[6] = 6 hrs after aphidicolin removal
[7] = 8 hrs after aphidicolin removal
[8] = 10 hrs after aphidicolin removal
[9] = 12 hrs after aphidicolin removal
[10] = 14 hrs after aphidicolin removal
[11] = 16 hrs after aphidicolin removal
[12] = 18 hrs after aphidicolin removal
[13] = 20 hrs after aphidicolin removal
[14] = 22 hrs after aphidicolin removal
[15] = 24 hrs after aphidicolin removal
[16] = 26 hrs after aphidicolin removal
[17] = 28 hrs after aphidicolin removal
[18] = 30 hrs after aphidicolin removal

## C[C@@]1(CO)[C@H](O)CC[C@@]2(C)[C@H]1CC[C@H]1C[C@@H]3C[C@@]12CC[C@]3(O)CO [aphidicolin]
Tobacco BY-2 cell line
  mitotic index: 45-50%
[1]; 1 h after aphidicolin removal
  Labelling Index (%): 19.41%
  Mitotic index (%): 0%
[1]; 2 h after aphidicolin removal
  Labelling Index (%): 35.47%
  Mitotic index (%): 0.2%
[1]; 3 h after aphidicolin removal
  Labelling Index (%): 69.46%
  Mitotic index (%): 0.4%
[1]; 4 h after aphidicolin removal
  Labelling Index (%): 66%
  Mitotic index (%): 0.6%
[1]; 5 h after aphidicolin removal
  Labelling Index (%): 39.22%
  Mitotic index (%): 1.21%
[1]; 6 h after aphidicolin removal
  Labelling Index (%): 16.05%
  Mitotic index (%): 0.92%
[1]; 7 h after aphidicolin removal
  Labelling Index (%): 13.27%
  Mitotic index (%): 0.71%
[1]; 8 h after aphidicolin removal
  Labelling Index (%): 9.6%
  Mitotic index (%): 1.87%
[1]; 9 h after aphidicolin removal
  Labelling Index (%): 8.23%
  Mitotic index (%): 2.41%
[1]; 10 h after aphidicolin removal
  Labelling Index (%): 9.23%
  Mitotic index (%): 6.09%
[1]; 11 h after aphidicolin removal
  Labelling Index (%): 4.6%
  Mitotic index (%): 6.7%
[1]; 12 h after aphidicolin removal
  Labelling Index (%): 1.46%
  Mitotic index (%): 10.72%
[1]; 13 h after aphidicolin removal
  Labelling Index (%): 2.78%
  Mitotic index (%): 11.06%
[1]; 14 h after aphidicolin removal
  Labelling Index (%): 3.61%
  Mitotic index (%): 10.99%
[1]; 15 h after aphidicolin removal
  Labelling Index (%): 2.73%
  Mitotic index (%): 6.74%
[1]; 16 h after aphidicolin removal
  Labelling Index (%): 2.28%
  Mitotic index (%): 5.79%
[1]; 17 h after aphidicolin removal
  Labelling Index (%): 1.96%
  Mitotic index (%): 4.49%
[1]; 18 h after aphidicolin removal
  Labelling Index (%): 3.3%
  Mitotic index (%): 4.01%
[1]; 19 h after aphidicolin removal
  Labelling Index (%): 7.62%
  Mitotic index (%): 2.38%
CDK-b1; [3]
  CDK-b1 %: 34.26%
  CDK-b1 Band intensity: 500
CDK-b1; [4]
  CDK-b1 %: 57.86%
  CDK-b1 Band intensity: 844
CDK-b1; [5]
  CDK-b1 %: 69.78%
  CDK-b1 Band intensity: 1018
CDK-b1; [6]
  CDK-b1 %: 74.34%
  CDK-b1 Band intensity: 1085
CDK-b1; [7]
  CDK-b1 %: 79.46%
  CDK-b1 Band intensity: 1160
CDK-b1; [8]
  CDK-b1 %: 96.41%
  CDK-b1 Band intensity: 1407
CDK-b1; [9]
  CDK-b1 %: 99.31%
  CDK-b1 Band intensity: 1450
CDK-b1; [10]
  CDK-b1 %: 100.0%
  CDK-b1 Band intensity: 1459
CDK-b1; [11]
  CDK-b1 %: 73.89%
  CDK-b1 Band intensity: 1078
CDK-b1; [12]
  CDK-b1 %: 51.49%
  CDK-b1 Band intensity: 751
CDK-b1; [13]
  CDK-b1 %: 58.87%
  CDK-b1 Band intensity: 859
CDK-b1; [14]
  CDK-b1 %: 42.07%
  CDK-b1 Band intensity: 614
CDK-b1; [15]
  CDK-b1 %: 30.65%
  CDK-b1 Band intensity: 447
CDK-b1; [16]
  CDK-b1 %: 49.74%
  CDK-b1 Band intensity: 726
CDK-b1; [17]
  CDK-b1 %: 50.87%
  CDK-b1 Band intensity: 742
CDK-b1; [18]
  CDK-b1 %: 57.47%
  CDK-b1 Band intensity: 839
CDK-a; [3]
  CDK-a %: 17.71%
  CDK-a Band intensity: 321
CDK-a; [4]
  CDK-a %: 37.87%
  CDK-a Band intensity: 687
CDK-a; [5]
  CDK-a %: 45.09%
  CDK-a Band intensity: 818
CDK-a; [6]
  CDK-a %: 66.22%
  CDK-a Band intensity: 1202
CDK-a; [7]
  CDK-a %: 58.06%
  CDK-a Band intensity: 1054
CDK-a; [8]
  CDK-a %: 77.44%
  CDK-a Band intensity: 1406
CDK-a; [9]
  CDK-a %: 80.20%
  CDK-a Band intensity: 1456
CDK-a; [10]
  CDK-a %: 92.43%
  CDK-a Band intensity: 1678
CDK-a; [11]
  CDK-a %: 79.03%
  CDK-a Band intensity: 1435
CDK-a; [12]
  CDK-a %: 100.0%
  CDK-a Band intensity: 1816
CDK-a; [13]
  CDK-a %: 89.25%
  CDK-a Band intensity: 1620
CDK-a; [14]
  CDK-a %: 53.55%
  CDK-a Band intensity: 972
CDK-a; [15]
  CDK-a %: 34.25%
  CDK-a Band intensity: 621
CDK-a; [16]
  CDK-a %: 40.96%
  CDK-a Band intensity: 743
CDK-a; [17]
  CDK-a %: 36.32%
  CDK-a Band intensity: 659
CDK-a; [18]
  CDK-a %: 29.30%
  CDK-a Band intensity: 532
Cell cycle
  cell cycle arrest: G1/early S
[2]; 2 h after release of block
  cells in S-phase: 50 to 60%
[2]; after 8 h
  cells in G2 phase: 50%
